From patent US8350061B2, “Synthetic analogs of bacterial quorum sensors” (priority 2009, dated 2013)

Columns and labels:
Format in all cases: cell-based
[1] = tested on: Yersinia pestis, Yersinia enterocolitica
[2] = tested on: Yersinia pestis, Yersinia enterocolitica and Yersinis pseudomonas
[3] = tested on: A549 human lung epithelial cells

## CCCC(=[Se])NC1CCOC1=O (stereo not shown) [(IV), N-(2-oxo-tetrahydro-furan-3-yl)-selenobutyramide]
[1]
  biofilm formation: significantly inhibited
[2]
  viability of biofilm-growing bacteria: significantly inhibited
[3]
  infection of cells by Pseudomonas aeruginosa: prevented the infection of cells
  viability of cells: increase in the viability of cells
